Where two headings read alike, the source gives them in different places.
Key:
[1] = system: P. falciparum Dd2 (PfLuc) line expressing firefly luciferase, asexual blood stage; experiment: microbe, parasite or virus in culture; parameters: species or system P. falciparum Dd2-luciferase in human red blood cells; PfLuc Dd2 asexual blood stage luciferase viability, BrightGlo luminescence, 48 h; details: Plasmodium falciparum, DD2, Erythrocyte, read-out: CDD P. falciparum Luciferase 11pt dose response (48hr, n=2): IC50 (μM), 11-point
Method: (§1) A transgenic line of Plasmodium falciparum (Dd2) constitutively expressing firefly luciferase was used for primary and reconfirmation screening. Cultures were maintained in complete media at 5% hematocrit (Human Whole Blood O+) and incubated at 37 °C in a low oxygen environment (3% O2, 5% CO2, and 92% N2). Culture health and parasitemia were tracked by Giemsa staining and bright field microscopy. Prior to dispensing parasites for primary screening, 20 nL of test compounds and 10 nL of control compounds (artemisinin and DMSO) were seeded per well using an Echo 550 acoustic dispenser (Labcyte) for final assay concentrations of 5 and 10 μM, respectively. When parasite cultures reached 3% to 8% parasitemia, as determined by a blood smear, infected blood was centrifuged at 800g for 5 min. […] From this blood mixture, 8 μL was dispensed per well in 1536-well, white, solid-bottom plates (789173-F, Greiner) using a MultiFlo FX Multi-Mode dispenser (BioTek). Plates were covered with a porous metal lid and incubated at 37 °C inside large plastic Ziploc bags filled with a blood gas mixture (3% O2, 5% CO2, and 92% N2) for 96 h. To prevent evaporation, a clean tray of water was included within each bag. Following incubation, BrightGlo was prepared by manufacturer specifications and dispensed at 2 μL per well using the MultiFlo dispenser. Plates were left for 20 min before being read with the ViewLux uHTS microplate imager (PerkinElmer) with a 90 s exposure time at the High Sensitivity Luminescence setting. Raw data were processed using GeneData (v12.0.5), whereby activity was normalized to negative minus positive controls. The correction of Runwise Pattern (Multiplicative) was applied, and compounds were considered hits when activity was reduced by ≥70%. […] Also, plates tested in 11-point dose response format were incubated at both 48 a From these (Sets 1 and 2), compounds were resupplied as fresh powders and evaluated in 11-point dose response tests (Pfluc; n = 2) for the two time points.

[2] = system: P. falciparum Dd2 (PfLuc) line expressing firefly luciferase, asexual blood stage; experiment: microbe, parasite or virus in culture; parameters: species or system P. falciparum Dd2-luciferase in human red blood cells; PfLuc Dd2 asexual blood stage luciferase viability, BrightGlo luminescence, 96 h; details: Plasmodium falciparum, DD2, Erythrocyte
Method: as §1, with “The primary assay was run at a compound concentration of 5 μM. Briefly, 8 μL of an ABS parasite mixture (∼10,000 parasites) was dispensed into 1536-well plates previously spotted with 64,811 GHCDL compounds (the remaining 3642 library compounds arrived later” for “From these (Sets 1”, “and” for “and 2), compounds”, “evaluated separately). After a 96 h incubation, 2 μL of luciferin (BrightGlo) was added,” for “resupplied as fresh powders”, “the luminescent signal was measured. Bioluminescence was normalized to DMSO (negative control) and artemisinin-treated (positive control) wells” for “evaluated in 11-point dose response tests (Pfluc; n = 2)”, “single point screens. For this primary screen, assay fidelity was determined on a per plate basis using both the Z′-factor and the potency variance of the positive (artemisinin) and negative (DMSO) controls. The mean Z′ value was 0.60 (range of 0.43–0.75), with only one plate falling below our ideal 0.5 threshold (Figure S1).” for “two time points.”

[3] = system: P. falciparum Dd2; experiment: microbe, parasite or virus in culture; parameters: species or system P. falciparum Dd2 in human red blood cells; SYBR Green I asexual blood stage proliferation (DNA) assay, P. falciparum Dd2, 96 h; details: Plasmodium falciparum, DD2, Erythrocyte, 96 h, read-out: CDD P. falciparum Sybr Green I ABS Dd2 Dose Response: IC50 (uM)
[4] = system: P. falciparum (NF54) stage V gametocytes; experiment: Stage V gametocyte viability assay (MitoTracker Red CMXRos high content imaging); format: cell-based, Plasmodium falciparum; details: Plasmodium falciparum, NF54, 72 h; for inhibition at 2 µM: read-out: Stg V Gam primary screen: Inhibition % (2uM) (n=2)
[5] = system: HepG2-A16-CD81 hepatocytes; experiment: cells; parameters: Uninfected hepatocyte viability, CellTiter-Glo luminescence; details: sheet CDD Export 1;, cytotoxicity primary screen, read-out: Table S5. Liver stage reconfirmation data / HepG2 Cytotoxicity primary screen (2uM): % Inhibition
Method: For the screen, 5 μL of HepG2-A16-CD81 hepatocytes containing 3 × 10^3 cells was seeded into 1536-well plates, which had been prespotted with 10 nL of library compound (2 μM final assay concentration (Figure 1)) and incubated overnight. For PbLuc infected plates, approximately 750 purified sporozoites in 5 μL of screening media were added to each well and incubated for 48 h before measuring luciferase activity. Compounds were tested for toxicity in parallel (see Methods) by measuring uninfected hepatocyte viability using CellTiter-Glo. […] This hit rate was slightly lower than expected for an agnostic library, which prompted us to rescreen the entire library at 10 μM. The PbLuc and cytotoxicity assay plates for this second replicate would be stamped in-house with 50 nL of library compound per well, using the same compound plates as the sexual stage screen described below. All the assay parameters were kept similar, except the change in concentration and shortening the time the compounds spent in each well prior to infection. […] All potential false positive effectors from the CellTiter-Glo assay were filtered from subsequent studies (Table S1). Naturally, there were more primary hits from the 10 μM than the 2 μM screen due to the higher testing concentration. For reconfirmation, we sourced all the hits that inhibited PbLuc at >70% and mean HepG2 at <50% in the 2 μM screen or PbLuc at >60% in both 2 and 10 μM screens and mean HepG2 at <50%. The resulting compounds were acquired as DMSO stocks and retested in the dose response (50–2.82 × 10^–4 μM or 25–141.13 × 10^–6 μM) against PbLuc and uninfected hepatocytes (Table S5). […] The majority of these compounds were weak inhibitors, although 18 submicromolar hits were found (Table S5).

[6] = system: P. falciparum Dd2 (PfLuc) line expressing firefly luciferase, asexual blood stage; experiment: microbe, parasite or virus in culture; format: cell-based, Plasmodium falciparum; details: Plasmodium falciparum
[7] = system: P. falciparum Dd2; experiment: SYBR green I asexual blood stage proliferation assay (96 h); format: cell-based, Plasmodium falciparum; details: Plasmodium falciparum, DD2, 11-pt dose response, 96hr
[8] = read-out: CDD P. falciparum Luc 11pt dose response (96hr, n=2): IC50 (μM), 11-point
[9] = read-out: Stg V Gam dose response IC50 (µM) (n=3), 10-point dose response, n=3, 72 h
[10] = DD2, read-out: CDD P. falciparum Luciferase ABS 11-pt Reconfirmation Dose Response (48hr): IC50 (μM), 11-pt dose response, 48hr
[11] = DD2, 8-pt dose response, 96hr, read-out: CDD P. falciparum Luciferase ABS 8-pt Reconfirmation Dose Response (96hr): IC50
[12] = DD2, 8-pt dose response, 96hr, read-out: CDD P. falciparum Luciferase ABS 8-pt Reconfirmation Dose Response (96hr): Maximum inhibition (%)
[13] = DD2, 11-pt dose response, 48hr, read-out: CDD P. falciparum Luciferase ABS 11-pt Reconfirmation Dose Response (48hr): Maximum inhibition (%)
[14] = DD2, 11-pt dose response, 96hr, read-out: CDD P. falciparum Luciferase ABS 11-pt Reconfirmation Dose Response (96hr): IC50
[15] = DD2, 11-pt dose response, 96hr, read-out: CDD P. falciparum Luciferase ABS 11-pt Reconfirmation Dose Response (96hr): Maximum inhibition (%)
[16] = Sybr Green I, read-out: CDD P. falciparum Sybr Green I ABS 11-pt Reconfirmation Dose Response (96hr): IC50
[17] = Sybr Green I, read-out: CDD P. falciparum Sybr Green I ABS 11-pt Reconfirmation Dose Response (96hr): Maximum inhibition (%)

Cc1cc(N2CCC(NC(C)Cc3ccsc3)CC2)nc(N)n1 (stereo not shown) [DDD01252553]
IC50 [1]: 1.11 µM
IC50 [2, 8]: 0.246 µM
IC50 [3]: 1.01 µM

CC1(c2ccccc2)CCCN(Cc2cncn2C2CCCC2)C1 (stereo not shown) [DDD01246491, CC1(CCCN(CC2=CN=CN2C2CCCC2)C1)C1=CC=CC=C1]
IC50 [4, 9]: 2.65 µM
inhibition at 2 µM [4]: 55.4%
inhibition at 2 µM [5]: -6.73%

COc1cc(C(=O)NCc2ccc3c(c2)CCCN3C)cc(OC)c1Br [DDD01300030]
IC50 [1]: 5.74 µM
IC50 [2, 8]: 2.46 µM
IC50 [3]: > 12.5 µM

O=C(CN1CCCC(c2ccn[nH]2)C1)Nc1nc2c(s1)CCCC2 (stereo not shown) [DDD01079490]
IC50 [6, 10]: 0.452 µM
IC50 [6, 11]: 0.28 µM
Emax [6, 12]: 89.3%
Emax [6, 13]: 82.4%
IC50 [6, 14]: 0.266 µM
Emax [6, 15]: 97%
inhibition at 2 µM [5]: 7.13%
IC50 [7, 16]: 810 nM
Emax [7, 17]: 69.6%

c1cc(-c2n[nH]cc2-c2ccnc(N3CCCC3)n2)ccn1 [DDD01235828]
IC50 ([2]; 8-point, 96 h, DMSO stocks, read-out: CDD P. falciparum Luciferase ABS 8-pt Reconfirmation Dose Response (96hr): IC50): 0.0618 µM
IC50 [6, 10]: > 4.16 µM
Emax [6, 12]: 91%
Emax [6, 13]: 53.9%
IC50 [6, 14]: 0.167 µM
Emax [6, 15]: 92%
IC50 ([6]; 96 h incubation, Dd2 luciferase, read-out: 96 hour Pfluc IC50): 0.17 µM
IC50 [7, 16]: 37 nM
Emax [7, 17]: 79.4%

COCCCNC1N=C(n2nc(C)cc2C)Nc2sc3c(c21)CCCC3 (stereo not shown) [DDD01037467, COCCCNC1N=C(NC2=C1C1=C(CCCC1)S2)N1N=C(C)C=C1C]
IC50 ([4]; read-out: GAM V IC50, stage V gametocytes, 72 h): 0.34 µM
IC50 [4, 9]: 0.344 µM
inhibition at 2 µM [5]: 2.66%

CCNc1ccnc(CN2CCCC2C(=O)Nc2nccs2)c1 (stereo not shown) [DDD01068941]
IC50 [6, 10]: 0.73 µM
IC50 [6, 11]: 0.48 µM
Emax [6, 13]: 92.3%
IC50 [6, 14]: 0.407 µM
Emax [6, 15]: 99.6%
inhibition at 2 µM [5]: 1.3%
IC50 [7, 16]: 1650 nM

CCOC(=O)C1(Cc2ccccc2-c2ccccc2OC)CCNCC1 [DDD01059034]
IC50 [1]: 5.11 µM
IC50 [2, 8]: 0.861 µM
IC50 [3]: > 4.16 µM

CN(C)CCCNCCC(c1ccccc1)C1CCOC(C)(C)C1 (stereo not shown) [DDD01026663]
IC50 [1]: 2.82 µM
IC50 [2, 8]: 0.627 µM
IC50 [3]: > 1.39 µM

CN(C)CCNC(=O)c1sc2ccccc2c1C1CCC(CN)CC1 (stereo not shown) [DDD01058779]
IC50 [1]: 1.31 µM
IC50 [2, 8]: 2.3 µM
IC50 [3]: 1.65 µM

Cc1cn2c(n1)C(CNCC1=Cc3ccccc3OC1)CCC2 (stereo not shown) [DDD01073292, CC1=CN2CCCC(CNCC3=CC4=CC=CC=C4OC3)C2=N1]
IC50 [4, 9]: 1.31 µM
inhibition at 2 µM [4]: 66%
IC50 ([6]; DD2, read-out: P. falciparum Luciferase ABS 11-pt Reconfirmation Dose Response (48hr): IC50, 11-pt dose response, 48hr): 4.19 µM
IC50 ([6]; DD2, 8-pt dose response, 96hr, read-out: P. falciparum Luciferase ABS 8-pt Reconfirmation Dose Response (96hr): IC50): 1.65 µM
Emax ([6]; DD2, 8-pt dose response, 96hr, read-out: P. falciparum Luciferase ABS 8-pt Reconfirmation Dose Response (96hr): Maximum inhibition (%)): 93%
IC50 ([6]; DD2, 11-pt dose response, 96hr, read-out: P. falciparum Luciferase ABS 11-pt Reconfirmation Dose Response (96hr): IC50): 1.84 µM
Emax ([6]; DD2, 11-pt dose response, 96hr, read-out: P. falciparum Luciferase ABS 11-pt Reconfirmation Dose Response (96hr): Maximum inhibition (%)): 99.3%
inhibition at 2 µM [5]: -0.92%
IC50 ([7]; read-out: P. falciparum Sybr Green I ABS 11-pt Reconfirmation Dose Response (96hr): IC50): 2320 nM
Emax ([7]; read-out: P. falciparum Sybr Green I ABS 11-pt Reconfirmation Dose Response (96hr): Maximum inhibition (%)): 83.8%

c1ccc(CCCN2CCN(c3ccc4nncn4n3)CC2)cc1 [DDD01295523]
IC50 [1]: 3.86 µM
IC50 [2, 8]: 0.912 µM
